Measured values reported in article PMC7504735, “Enhanced Antigiardial Effect of Omeprazole Analog Benzimidazole Compounds” (Molecules, 2020).
Where two headings read alike, the source gives them in different places.

Columns and labels:
[1] = target: T1, triosephosphate isomerase (TPI) (Giardia intestinalis, UniProt P36186); assay: Inactivation of recombinant TPI enzyme with compounds; type: biochemical
T1 construct: His-tag (TEV-cleavable) (cleaved yes); made in house
Description: The TPI from G. lamblia was expressed and purified. […] When the culture reached A600 = 0.8, it was induced using 0.4 mM IPTG and incubated overnight at 30 °C with shaking at 180 rpm. After the bacteria were collected by centrifugation (10,000× g, 15 min) and suspended in 40 mL of lysis buffer, pH 8.0 (50 mM Tris, 50 mM NaCl, 5 mM β-mercaptoethanol, and 1 mM phenylmethylsulfonyl fluoride). The bacterial suspension was disrupted by sonication and centrifuged at 9000× g for 1 h at 4 °C. Protein purification was performed by immobilized metal affinity chromatography (IMAC) using a Profinity Ni^2+ charged resin (Bio-Rad) previously reported by Enriquez-Flores et al.. The His-tag sequence was removed from the TIM by incubation with TEVP at a molar ratio of 30:1 (TPI/TEVP) at room temperature for 17 h in digestion buffer, pH 8.0 (50 mM Tris, 0.5 mM ethylene diamine tetraacetic acid (EDTA), and 1 mM dithiothreitol). The enzyme concentration was spectrophotometrically determined at 280 nm, and the enzyme was used immediately.
Enzyme activity of TPI was determined spectrophotometrically as described by monitoring the conversion of glyceraldehyde-3-phosphate (GAP) to dihydroxyacetone phosphate (DHAP). […] The standard reaction mixture contained 1 mM GAP, 0.2 mM NADH, and 0.9 units/mL of α-GDH in TE buffer (100 mM triethanolamine, 10 mM EDTA, pH 7.4). The reaction was initiated by adding 5 ng/mL of TPI to the reaction mixture.
To determine the inactivation of the TPI enzyme from G. lamblia, we performed inactivation assays of the enzyme in the presence of the synthesized compounds. The compounds’ stock solutions were freshly prepared using 100% dimethyl sulfoxide (DMSO) as the solvent at 25 mM. […] After the incubation period, the enzymatic activity was measured by withdrawing an aliquot of each experimental condition, as described above. The results were expressed in terms of the percentage of activity versus the compound’s concentration.

[2] = system: Giardia lamblia trophozoites; assay: Antigiardial activity on G. lamblia trophozoites, trypan blue dye exclusion; type: cell-based; conditions: Giardia duodenalis, 48 h at 37 °C, pH 7.4, trypan blue
Description: Giardia lamblia WB strain (ATCC number 30957) was grown in a modified TYI-S-33 medium supplemented with 10% fetal bovine serum. The parasite was cultivated in 15 mL screw-capped borosilicate glass tubes containing 13 mL medium. The tubes were incubated on a 15° horizontal slant at 37 °C. Giardia was harvested from confluent culture by chilling the tubes on ice for 5‒10 min to detach cells, followed by centrifugation at 800× g for 5 min.
The antigiardial activity of the prepared compounds was tested as described. One milligram of a test compound was dissolved in 10 L of DMSO and topped up with 1 mL growth medium. The solution was filter-sterilized using 0.22-m syringe filters and the appropriate volumes of the solutions were taken to prepare the concentration of each compound in 1.5 mL microtubes. For each preparation, concentrations of 500, 250, 125, 62, and 31 µg/mL were prepared in a final volume of 1.5 mL. Each tube was inoculated with 5 × 10^4 trophozoites of G. lamblia and then incubated for 48 h at 37 °C. After incubation, 75 L of the treated trophozoites were subcultured individually for another 48 h in a fresh medium free of compounds. At the end of this period, the viable trophozoites were counted. Each compound was assayed in duplicate in three independent experiments. In each assay, appropriate controls were also tested, including a sample without compound and another with DMSO.
The parasites in each tube were counted using a standard hemocytometer at 10× objective. In each count, trypan blue was employed to distinguish live parasites from dead ones. To permit detachment of Giardia, the tubes were placed on ice for 10 min and the parasites were then centrifuged at 800× g for 10 min. The supernatant was discarded and 1 mL fresh medium was added to each tube. The final suspension was prepared by mixing 25 μL of the parasite suspension in each tube with 100 μL of 0.4% trypan blue in phosphate-buffered saline (PBS). The 50% inhibitory concentration (IC50) was employed as a parameter for biological activity. The IC50 is the concentration of compounds that cuts the number of parasites to half that in the negative control (growth medium + DMSO + parasites). Lastly, the 50% inhibitory concentration (IC50) was calculated.

[3] = target: T1, triosephosphate isomerase (TPI); parameters: method as in PMID 28798383; conditions: previously reported; cited from earlier work
[4] = system: Giardia lamblia trophozoites; parameters: method as in PMID 28798383; conditions: previously reported; cited from earlier work
[5] = target: T1, triosephosphate isomerase (TPI); conditions: cited from earlier work
VERO cells = system: VERO cells; parameters: method as in PMID 28798383; conditions: cited from earlier work
[6] = target: T1, triosephosphate isomerase (TPI); parameters: method as in PMID 28798383; conditions: BHO2 comparison; cited from earlier work

T1 sequence (P36186 whole entry): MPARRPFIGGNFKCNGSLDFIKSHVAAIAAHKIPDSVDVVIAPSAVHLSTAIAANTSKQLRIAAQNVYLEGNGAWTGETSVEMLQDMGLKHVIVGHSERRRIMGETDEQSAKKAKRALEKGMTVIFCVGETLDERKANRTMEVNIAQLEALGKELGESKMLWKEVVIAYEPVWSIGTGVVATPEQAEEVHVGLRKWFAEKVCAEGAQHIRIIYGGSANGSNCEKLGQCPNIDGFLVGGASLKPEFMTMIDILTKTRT

Row | SMILES | IC50 [3] [µM] | IC50 [4] [µM] | Second-order inactivation constant k2 ([5]; previously reported) [M⁻¹ s⁻¹] | other results
1 | [O-][S+](Cc1ccccn1)c1nc2ccccc2[nH]1 (stereo not drawn) [H-BZM1] |  |  |  | IC50 [1]: > 500 µM; Loss (reduction) of TPI enzyme activity ([1]; 500 µM compound, 2 h at 37 °C): 25%; IC50 [2]: 676 µM
2 | COc1ccc2[nH]c([S+]([O-])Cc3ncc(C)c(OC)c3C)nc2c1 (stereo not drawn) [Omeprazole] | 225 | 300 | 0.78 | 
3 | COCCCOc1ccnc(C[S+]([O-])c2nc3ccccc3[nH]2)c1C (stereo not drawn) [rabeprazole] |  |  |  | Second-order inactivation constant k2 ([5]; reported by García-Torres et al.): 2.66 M⁻¹ s⁻¹
4 | COc1c(C)cnc(C[S+]([O-])c2nc3ccc(C)cc3[nH]2)c1C (stereo not drawn) [BHO2] | 64 | 120 | 1.6 | CC50 for mammal cells (VERO) (VERO cells): millimolar ranges; Loss of intrinsic fluorescence signal of TPI [6]: 25%
